Structures are written as SMILES. Converted amounts (≈) assume the structure as drawn.

In data set [1] the test system is Artemia salina. Kind of data set: Toxicity in Artemia salina assessed as mortality at 100 ppm after 24 hrs. The data set is classed as organism-based. The conditions noted are these: in vivo.
Data set [2] concerns Artemia salina. Kind of data set: Toxicity in Artemia salina assessed as mortality at 250 ppm after 24 hrs. The format is organism-based. The conditions noted are these: in vivo.
Data set [3] concerns Staphylococcus aureus. In words: Antimicrobial activity against Staphylococcus aureus after 18 to 24 hrs. The format is functional.
For data set [4], the system named is Candida albicans. Kind of data set: Antimicrobial activity against Candida albicans after 18 to 24 hrs. The format is functional.
Data set [5] concerns Bacillus subtilis. Kind of data set: Antimicrobial activity against Bacillus subtilis after 18 to 24 hrs. The data set is classed as functional.
Data set [6] concerns Artemia salina. Kind of data set: Toxicity in Artemia salina after 24 hrs. As to conditions: in vivo. The data set is classed as organism-based.
For data set [7], the system named is Artemia salina. Kind of data set: Toxicity in Artemia salina assessed as mortality at 500 ppm after 24 hrs. The format is organism-based. The conditions noted are these: in vivo.
Data set [8] relates to Bacillus subtilis. Kind of data set: Antimicrobial activity against Bacillus subtilis at 20 uL after 18 to 24 hrs by disk diffusion method. The data set is classed as functional.
The test system of data set [9] is Escherichia coli. Kind of data set: Antimicrobial activity against Escherichia coli after 18 to 24 hrs. The format is functional.
Data set [10] has as its system Candida albicans. Kind of data set: Antimicrobial activity against Candida albicans after 18 to 24 hrs at 20 uL by disk diffusion assay. The data set is classed as functional.
The test system of data set [11] is Escherichia coli. In words: Antimicrobial activity against Escherichia coli at 20 uL after 18 to 24 hrs by disk diffusion method. The format is functional.
Data set [12] concerns Artemia salina. In words: Toxicity in Artemia salina assessed as mortality at 1000 ppm after 24 hrs. The data set is classed as organism-based. As to conditions: in vivo.
Data set [13] has as its system Staphylococcus aureus. In words: Antimicrobial activity against Staphylococcus aureus at 20 uL after 18 to 24 hrs by disk diffusion method. The format is functional.

`CCCCOC(=O)[C@H](COC(=O)CCc1ccccc1)NC(=O)c1cccnc1O`: the LC50 in data set [1] was found to be 26.67 ppm; in data set [2] it was 55.58 ppm; in data set [6], 266.83 ppm; in data set [7], 76.67 ppm; in data set [12], 100 ppm. The MIC stood at 1000 µg/mL (≈ 2410 µM) in [3], 1000 µg/mL (≈ 2410 µM) in data set [4], 500 µg/mL (≈ 1210 µM) in data set [5] and 1000 µg/mL (≈ 2410 µM) in data set [9]. Moreover, the “diameter of the inhibition zone (DIZ)” value is reported as 7 mm in data set [8], 7.5 mm in data set [10], 7.83 mm in data set [11] and 7.5 mm in data set [13].
On to `CCCCCCCC(=O)OC[C@H](NC(=O)c1cccnc1O)C(=O)OCCCC`, for which the LC50 in data set [1] is listed as 0 ppm; in data set [2], 0 ppm; in [6], 3620.41 ppm; in data set [7] it was 2.78 ppm; in data set [12], 11.02 ppm. Further, the MIC in data set [3] was 100 µg/mL (≈ 245 µM); in data set [4] it was 250 µg/mL (≈ 612 µM); in data set [5], 50 µg/mL (≈ 122 µM); in data set [9], 75 µg/mL (≈ 184 µM). The “diameter of the inhibition zone (DIZ)” value was determined as 7 mm in data set [8], 7.83 mm in [10], 7 mm in data set [11] and 7 mm in data set [13].
With `CCCCOC(=O)[C@H](COC(C)=O)NC(=O)c1cccnc1O`, the LC50 in data set [1] came to 4.94 ppm; in data set [2] it was 9.7 ppm; in data set [6], 811.01 ppm; in data set [7] it was 39.62 ppm; in data set [12], 58.66 ppm. Besides, the MIC in [3] was 250 µg/mL (≈ 771 µM); in [4], 500 µg/mL (≈ 1540 µM); in [5], 250 µg/mL (≈ 771 µM); in data set [9], 250 µg/mL (≈ 771 µM). Besides, the “diameter of the inhibition zone (DIZ)” value in data set [8] was 7 mm; in data set [10] it was 7.5 mm; in data set [11] it was 7 mm; in [13], 7.5 mm.
For `CCCC[C@H]1C(=O)O[C@H](C)[C@H](NC(=O)c2cccc(NC=O)c2O)C(=O)O[C@@H](C)[C@@H]1OC(=O)CC(C)C` [ANTIMYCIN A3], the MIC in [3] was found to be 250 µg/mL (≈ 480 µM); in data set [4] it was 50 µg/mL (≈ 96 µM); in [5], 250 µg/mL (≈ 480 µM); in data set [9] it was 50 µg/mL (≈ 96 µM). Also, the “diameter of the inhibition zone (DIZ)” value in [8] worked out at 8.5 mm; in data set [10], 10 mm; in [11], 7 mm; in data set [13] it was 8 mm.

Source of the values: ChEMBL document CHEMBL1177833, “Synthesis and biological activity of 2-hydroxynicotinoyl-serine-butyl esters related to antibiotic UK-3A” (Bioorg Med Chem Lett, 2010).
